Results as given in US20230165829A1, “FLAVAGLINE DERIVATIVES FOR INHIBITION OF KRAS ONCOGENE ACTIVATION” (KHR BIOTEC GMBH, priority 2018, published 2023).
Where two headings read alike, the source gives them in different places.

Experiments:
RAS [1] = test: Active Ras pull down assay (CRAF-RBD, Ral-GDS-RA) after EGF stimulation in HeLa cells; assay type: cell-based; settings: pre-treatment at 200 nM, 1 h before EGF stimulation
RAS [2] = settings: cited from earlier work

Row | SMILES | inactivation of KRAS (inhibition of KRAS activation), relative luminescence vs DMSO (KRAS G12V) | further results
1 | COc1ccc([C@@]23Oc4cc(OC)cc(OC)c4[C@]2(O)[C@H](O)C[C@H]3c2cccc(F)c2)cc1 [FL15] | inactivation of KRAS | 
2 | COc1cc(OC)c2c(c1)O[C@@]1(c3ccc(Cl)cc3)[C@H](c3cccc(F)c3)C[C@H](NC(=O)N(C)C)[C@@]21O [FL42] | inactivation of KRAS | 
3 | CNC(=O)[C@H]1[C@@H](O)[C@@]2(O)c3c(OC)cc(OC)cc3O[C@@]2(c2ccc(Br)cc2)[C@@H]1c1ccccc1 [FL13] | inactivation of KRAS | 
4 | COc1cc(OC)c2c(c1)O[C@@]1(c3ccc(Br)cc3)[C@H](c3cccc(F)c3)C[C@H](NC(=O)N(C)C)[C@@]21O [FL37] | inactivation of KRAS | 
5 | COc1cc(OC)c2c(c1)O[C@@]1(c3ccc(Br)cc3)[C@H](c3ccccc3)C[C@@H](O)[C@@]21O [FL3] | inactivation of KRAS | 
6 | COc1cc(OC)c2c(c1)O[C@@]1(c3ccc(Br)cc3)[C@H](c3cccc(F)c3)C[C@H](NC(N)=O)[C@@]21O [FL40] | inactivation of KRAS | 
7 | CNCCOc1ccc2c(c1)O[C@@]1(c3ccc(Cl)cc3)[C@H](c3ccccc3)C[C@@H](O)[C@@]21O [IMD-26260] | inactivation of KRAS | 
8 | COC(=O)[C@H]1[C@@H](O)[C@@]2(O)c3c(OC)cc(OC)cc3O[C@@]2(c2ccc(Br)cc2)[C@@H]1c1ccccc1 [FL10] | inactivation of KRAS | 
9 | COc1ccc([C@@]23Oc4cc(OC)cc(OC)c4[C@]2(O)[C@H](OC=O)C[C@H]3c2ccccc2)cc1 [FL19] | inactivation of KRAS | 
10 | COc1ccc([C@@]23Oc4cc(OC)cc(OC)c4[C@]2(O)[C@H](O)[C@H](C(=O)N(C)C)[C@H]3c2ccccc2)cc1 [rocaglamide] |  | activation of RAS in response to EGF (GTP-loaded Ras pull down) (RAS [1]): inhibited; inactivation of KRAS (inhibition of KRAS activation), relative luminescence vs DMSO (KRAS G12V; 100 nM compounds for 4 h, KRAS G12V transfected HeLa cells, similar results with KRAS WT + EGF (100 ng/ml, 30 min)): inactivation of KRAS; RAS-activation in KRAS-mutated cell lines (RAS [2]): inhibits RAS-activation; specificity for KRAS versus isoforms HRAS and NRAS (RAS [2]): not specific enough to differentiate between KRAS and a closely related isoform HRAS and NRAS
